Data on 13 molecules can be found in patent US20260146991A1, “COMPOSITION AND METHODS OF AGING-RELATED AGENT SCREENING AND TARGET ANALYSIS” (Centre for Translational Stem Cell Biology Limited, priority 2022, published 2026).

Entries after “also recorded” stand apart in the source; their conditions may differ.

Data set [1] has as its system TSCs differentiating towards STBs. Kind of data set: Western blot of β-hCG during TSC-STB differentiation. The class given is cell-based, human. To be noted: at certain / different concentrations, FIG. 4I. Here is the method: Western blot: The proteins were extracted with RIPA lysis (thermofisher, Cat. 89901) and Pierce Protease Inhibitor Mini Tablets (thermofisher, Cat. A32953). Protein concentrations were measured with Pierce™ BCA Protein Assay Kits (thermofisher, Cat. 23227). Then samples with certain amount of NuPAGE™ LDS Sample Buffer (4×) (thermofisher, Cat. NP0008) were boiled at 70 degree for 10 min. Boiled samples were loaded with the same amount and separated in 12% polyacrylamide gels (Thermofisher Cat. NP0343BOX) and transferred to PVDF membranes using the Bio-Rad transblot turbo system according to the manufacturer's guidance. Images were developed by the ChemiDoc Imaging System and processed with ImageJ 1.47v. The following primary antibodies were used: anti-GAPDH (thermosfisher, Cat. AM4300, 1:10000 for western blot), anti-Ki67 (thermofisher, Cat. MA5-14520, 1:1000 for western blot, 1:200 for IF), anti-HERVK-gag (Austral Biologicals, Cat. HERM-1811-5, 1:200 for IF), anti-TRF1 (Abcam, Cat. ab 10579, 1:100 for IF), anti-ZO-1 (CST, Cat. 13663, 1:200 for IF), anti-CGB3 (Abcam, Cat. Ab131170, 1:200 for IF), anti-H3 (CST, Cat. 4499 1:2000 for western blot), anti-H3K9mc3 (Abcam, Cat. ab8898, 1:1000 for western blot), anti-E-cadherin (CST, Cat. 14472, 1:200 for IF), anti-p38 MAPK (thermofisher, Cat. 338700, 1:1000 for western blot), anti-LaminB1 (thermofisher, Cat. 702972, 1:1000 for western blot, 1:200 for IF), anti-p27 Kip1 (thermofisher, Cat. PA527188, 1:1000 for western blot), anti-Hp1 gamma (thermofisher, Cat. MA3054, 1:1000 for western blot, 1:300 for IF), anti-SIRT1 (CST, Cat. 8469S, 1:1000 for western blot), anti-SIRT6 (CST, Cat. 12486S, 1:1000 for western blot), anti-SIRT3 (thermofisher, Cat. MA514910, 1:1000 for western blot), anti-p53 (thermofisher, Cat. MA512557, 1:1000 for western blot, 1:200 for IF), anti-gammaH2AX (CST, Cat. 2577s, 1:1000 for western blot, 1:200 for IF), anti-IL-6 (thermofisher, Cat. MA523698, 1:50 for IF), anti-hCG (thermofisher, Cat. 14-6508-82, 1:1000 for western blot, 1:200 for IF). […]
(In general: In western blotting, separated proteins are transferred to a membrane and probed.)

Another data set relates to TSC-STB differentiation. Kind of data set: TSC-STB system, overall evaluation of anti-aging effect. The class given is cell-based, human. To be noted: summary statement. Here is the method:
(§1) Same number of TSCs in robust growing state were seeded in STBM with/without a candidate agent in a black Polystyrene TC-treated 96-well Microplate pre-coated with 10 mg/ml Geltrex™ LDEV-Free Reduced Growth Factor Basement Membrane Matrix or Matrigel (1.5×10^4-2×10^4 cells per well). On each screening microplate, 3 wells of control (cells only with 0.5% DMSO in 100 μL STB growth medium) and 3 wells of positive control (some well-known anti-ageing agents in certain concentration) were included. The cells were cultured at 37° C. and 5% CO2 with saturating humidity and differentiated into mature STB in the medium for 6 days. Cell morphology was monitored daily under a microscope. The signal readouts of reporter molecules was assessed on day 2, day 4, and day 6. On day 6, cells in each well were fixed and stained with DAPI or Hoechst, and cell count and intensity (both reporter and nuclei) were assessed using high content microscopy to assess the agent's effects and cell viability. The agents, especially those that affect cell viability will also be tested at different concentrations and at different day during the STB differentiation process.
(§2) First, a known anti-aging drug Rapamycin was tested. TSCs in good growing state were seeded at 1.0×10^4-2×10^4 cells per well in a 24-well plate pre-coated with 10 mg/mL Geltrex™ LDEV-Free Reduced Growth Factor Basement Membrane Matrix or Matrigel. After 24 hours, 3 wells continued in TSCM; 3 wells switched to STBM+DMSO; 3 wells switched to STBM+Rapamycin (500 nM). The media was changed every 2-3 days. On day 6, β-hCG was measured by ELISA as described in Example 1. Expression of aging-related marker genes (e.g., CGA and CGB3) was measured by RT-qPCR as described in Example 1.

In data set [2] the test system is TSCs differentiating towards STBs. Kind of data set: RT-qPCR of aging-related marker genes during TSC-STB differentiation. To be noted: FIG. 4H. The class given is cell-based, human. Here is the method: (§3) To generate the hTSC cell lines, the single cell suspension of hEPSCs were plated on a 6-well plate (1-2×10^3/well) pre-coated with 10 mg/mL Geltrex™ LDEV-Free Reduced Growth Factor Basement Membrane Matrix or Matrigel and cultured in human trophoblast stem cell medium (hTSCM) for 7-10 days. Then single colonies of the differentiated cells on the 6-well plate were picked and expanded. The expanded cell lines were validated with trophoblast markers and RNA-Seq analysis. The established TSC cell lines were maintained in the hTSCM medium and passaged at ratio 1:4-1:5 every 3-5 days. The hTSCM was DMEM/F12 based medium supported with: 110 μM β-mercaptoethanol, 0.2% FBS, 0.5% Penicillin-Streptomycin-Glutamine, 0.3% BSA, 1×ITS-X supplement, 50.0 μg/mL Vc, 50.0 ng/ml EGF, 2.0 μM CHIR99021, 0.5 μM A83-01, 1.0 μM SB431542, 0.8 μM VPA, and 5.0 μM Y27632. Established TSC cells were seeded at 1.0×10^5-2×10^5 cells per well in a six-well plate pre-coated with 10 mg/mL Geltrex™ LDEV-Free Reduced Growth Factor Basement Membrane Matrix or Matrigel, and were induced to differentiate into STBs after culturing in syncytiotrophoblasts medium (STBM) for around 6 days. The STBM comprises: DMEM/F12 supplemented with 110 μM β-mercaptoethanol, 0.5% Penicillin-Streptomycin, 0.3% BSA, 1×ITS-X, 2.5 μM Y27632, 2 μM Forskolin, and 4% KnockOut Serum Replacement. The cells became early syncytiotrophoblasts on day 2-3, and mature syncytiotrophoblasts around day 6.
RT-qPCR: Total RNA was extracted using RNeasy Mini Kit (Qiagen) per manufacturer specification. Extracted RNA was then reverse transcribed to cDNA using Fastking gDNA diselling RT SuperMix (Tiangen). Gene expression was measured using PowerUp™ SYBR™ Green Master Mix (Applied Biosystems) and StepOnePlus™ Real-Time PCR (Applied Biosystems) with the primers listed in Table E1A. Raw gene expression data was normalized to GAPDH by using the ΔCt method. Statistical analysis was carried out using either one/two-tailed student's t-test in Prism 8 (GraphPad).
as §2

The conditions of data set [3]: background; cited from earlier work.
In the next data set the test system is model organisms. Conditions: yeast, worms, flies, male mice; background; cited from earlier work.
In data set [4] the test system is TSCs differentiating towards STBs. Kind of data set: Cell morphology, viability and proliferation during TSC-STB differentiation. To be noted: for morphology: appearance of multinucleated STB cells: treated cells during TSC-STB differentiation, FIG. 4E. The class given is cell-based, human. Here is the method:
as §3, §1, §2

For data set [5] the test system is unchanged. Kind of data set: ELISA of secreted β-hCG during TSC-STB differentiation. The class given is cell-based, human. To be noted: compared to the DMSO control group; FIG. 4F. Here is the method: as §3, with “The STBM comprises: DMEM/F12 supplemented with 110 μM β-mercaptoethanol, 0.5% Penicillin-Streptomycin, 0.3% BSA, 1×ITS-X, 2.5 μM Y27632, 2 μM Forskolin, and 4% KnockOut Serum Replacement. The cells became early syncytiotrophoblasts on day 2-3, and mature syncytiotrophoblasts around day 6.” left out
First, a known anti-aging drug Rapamycin was tested. […] On day 6, β-hCG was measured by ELISA as described in Example 1. Expression of aging-related marker genes (e.g., CGA and CGB3) was measured by RT-qPCR as described in Example 1.
Background: ELISA stands for enzyme-linked immunosorbent assay.

As to `O=c1c(O)c(-c2ccc(O)c(O)c2)oc2cc(O)ccc12` [Fisetin], the “β-hCG expression (Western blot)” value in data set [1] was “reduced”; in data set [1] (listed as Fisctin), “significantly reduce”. Also, in the data set on TSC-STB differentiation, the “anti-aging effect in the TSC-STB system” value is on record as “showed anti-aging effects as expected”. In addition, the CGA expression entry in data set [2] (1 μM) was “reduced”; in data set [2] (10 μM), “increasing”.
Take `NC(=O)c1ccc[n+]([C@@H]2O[C@H](COP(=O)([O-])O)[C@@H](O)[C@H]2O)c1` [NMN, Nicotinamide mononucleotide]: the “anti-aging effect in the TSC-STB system” value in the data set with TSC-STB differentiation is listed as “showed anti-aging effects as expected”. For the same molecule, the CGA expression result in data set [2] (1 μM) is on record as “reduced”; in data set [2] (10 μM) it was “increasing”.
As for `Cc1ccc(-c2cc(C(F)(F)F)nn2-c2ccc(S(N)(=O)=O)cc2)cc1` [celecoxib], the “side effects in humans” value in data set [3] is “major bleeding events and increase in all-cause mortality”.
With `CC(=O)Oc1ccccc1C(=O)O` [aspirin], the “side effects in humans” value in data set [3] is on record as “increase the risk of gastrointestinal bleeding”. Further, in the data set on model organisms, the “lifespan in some model organisms” value is reported as “extend lifespan”.
For the molecule `CC(C)n1nc(-c2ccc3oc(N)nc3c2)c2c(N)ncnc21` [INK128], the “β-hCG expression (Western blot)” value in data set [1] is “significantly reduce; also recorded: reduced”. In addition, in data set [4], the “morphology: appearance of multinucleated STB cells” value (from here on “morphology: appearance”) is recorded as “delayed appearance of multinucleated STB cells”. Moreover, the “secreted β-hCG level (ELISA)” value in data set [5] is “significantly lower”.
In the case of `CC(C)C(=O)OC[C@H]1O[C@@H](n2ccc(NO)nc2=O)[C@H](O)[C@@H]1O` [Molnupiravir], the “morphology: appearance” value in data set [4] is “delayed appearance of multinucleated STB cells”.
Regarding `O=c1c(O)c(-c2ccc(O)c(O)c2)oc2cc(O)cc(O)c12` [Quercetin], the “anti-aging effect in the TSC-STB system” value in the data set with TSC-STB differentiation is on record as “showed anti-aging effects as expected”. The CGA expression result in data set [2] (1 μM) and in data set [2] (10 μM) was “decrease” in each case.
As to `CC(C)Cc1ccc(C(C)C(=O)O)cc1` (centres unmarked) [ibuprofen], in data set [3], the “side effects in humans” value was “major bleeding events and increase in all-cause mortality”. Further, the “lifespan in some model organisms” value in the data set with model organisms is “extend lifespan”.
On to `CN(C)C(=N)N=C(N)N` [metformin], for which, in the data set on TSC-STB differentiation, the “anti-aging effect in the TSC-STB system” value is “showed anti-aging effects as expected”.
For `NCCCCNCCCN` [Spermdine], the CGA expression entry in data set [2] (1 μM) and in data set [2] (10 μM) was “decrease” throughout.
As for `CO[C@H]1C[C@@H]2CC[C@@H](C)[C@@](O)(O2)C(=O)C(=O)N2CCCC[C@H]2C(=O)O[C@H]([C@H](C)C[C@@H]2CC[C@@H](O)[C@H](OC)C2)CC(=O)[C@H](C)/C=C(\C)[C@@H](O)[C@@H](OC)C(=O)[C@H](C)C[C@H](C)/C=C/C=C/C=C/1C` [Rapamycin], the “cell viability or proliferation” value in data set [4] (500 nM, FIG. 4A) is listed as “did not affect”.
As for `CC(C)C[C@H](NC(=O)OCc1ccccc1)C(=O)N[C@@H](C[C@@H]1CCNC1=O)C(O)S(=O)(=O)[O-].[Na+]` (some centres unmarked) [GC376], the “morphology: appearance” value in data set [4] is reported as “delayed appearance of multinucleated STB cells”.
For STM2457, the “morphology: appearance” value in data set [4] is recorded as “delayed appearance of multinucleated STB cells”.
